Like-named read-outs stand apart in the source and are kept apart here.
How the values were obtained:
[1] = molecular target: T1, human 5-HT2A receptor (Homo sapiens, UniProt P28223); experiment: Gq-mediated calcium transients (calcium mobilization), Fluo-4, HEK cells; type: cell-based
T1 construct: expressed in transfected cells

[2] = molecular target: T2, 5-HT2AR-Tango construct (Homo sapiens, UniProt P28223); experiment: β-arrestin-2 recruitment, PRESTO-Tango assay in HTLA cells; type: cell-based; conditions: for Emax: HTLA
T2 construct: expressed in transfected cells; host or cells: HTLA cells (transient transfection)

[3] = tested on: adult male Brown Norway rats; experiment: Ovalbumin allergic asthma model, whole body plethysmography (ΔPenh) after methacholine challenge; type: in vivo; conditions: for Prevention of AHR (ΔPenh/PenH) in response to OVA: rats
Excerpt: A modification of the ovalbumin model of allergic asthma and whole body plethysmography protocol as described in Nau et al. (Am. J. Physiol. Lung Cell Mol. Physiol. 2015, 308(2): L191-L198; incorporated herein by reference) was used to determine ΔPenh, a measure of airways hyperresponsiveness (AHR), in response to methacholine challenge in adult male Brown Norway rats. Results, shown in FIGS. 2A-2G, represent PenH change measured in the ovalbumin allergic asthma assay in rats, with the exception of FIG. 2C, which was measured in mice, for nebulized inhaled drug. Statistics were performed using 2-way ANOVA with Tukey post hoc test for multiple comparisons.
Allergic asthma is defined as a chronic inflammatory disorder of the airways. This disease is characterized by airway inflammation, persistent airways AHR and intermittent, reversible airways obstruction.
Area under the curve of PenH values (PenH-AUC) in response to incremental doses of metacholine were calculated for each testing groups, naïve, OVA treated, and OVA+DRUG treated animals. A reduction in PenH-AUC values of more than 75% of the control values (OVA alone) was annotated as a strong efficacy. […] Additional to this information are provided the relative to R-DOI EC50 values (ratio) of tested compounds in 5-HT2AR heterologous cell-based calcium transient assay. […] FIG. 3 illustrates the non-correlative nature of the therapeutic efficacy of the phenylethylamines class of compounds against inflammatory-mediated allergen-induced AHR and the reported evidences of the dose necessary for psychoactive disturbances experienced with these compounds in humans or the potency and strength of these compounds to the 5-HT2AR in calcium transients assays.
Inhibition of ΔPenh as a function of 2C-iBu concentration was studied by nebulization nose-only administration of 2C-iBu to male adult Brown Norway rats as described above. Area under the curve for each treatment group at a given dose of 2C-iBu for ΔPenh is plotted on the Y-axis versus concentration of 2C-iBu on the X-axis.

[4] = molecular target: T3, 5-HT1A (h) (Homo sapiens, UniProt P08908); experiment: Radioligand binding, agonist radioligand [3H]8-OH-DPAT
T3 construct: membrane preparations
T3 sequence (P08908 1-422): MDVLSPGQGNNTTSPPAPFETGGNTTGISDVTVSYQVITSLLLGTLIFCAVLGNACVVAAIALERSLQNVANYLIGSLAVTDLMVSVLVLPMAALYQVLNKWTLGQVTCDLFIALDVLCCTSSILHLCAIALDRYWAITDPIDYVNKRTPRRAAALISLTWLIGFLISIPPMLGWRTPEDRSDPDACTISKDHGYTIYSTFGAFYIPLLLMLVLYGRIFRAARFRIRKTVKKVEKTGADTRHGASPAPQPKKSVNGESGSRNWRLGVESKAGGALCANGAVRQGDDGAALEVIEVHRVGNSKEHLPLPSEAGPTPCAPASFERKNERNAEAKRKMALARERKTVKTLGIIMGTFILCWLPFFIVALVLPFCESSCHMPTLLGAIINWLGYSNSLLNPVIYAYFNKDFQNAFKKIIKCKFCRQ

[5] = molecular target: T4, 5-HT1D (Rattus norvegicus, UniProt P28565); experiment: Radioligand binding, agonist radioligand [3H]serotonin; parameters: species or system human
T4 construct: membrane preparations

[6] = molecular target: T5, 5-HT6 (h) (Homo sapiens, UniProt P50406); experiment: Radioligand binding, agonist radioligand [3H]LSD
T5 construct: membrane preparations

[7] = molecular target: T6, 5-HT7 (h) (Homo sapiens, UniProt P34969); experiment: Radioligand binding, agonist radioligand [3H]LSD
T6 construct: membrane preparations

[8] = In vitro protein binding in human plasma; type: in vitro ADME; conditions: 1.0×10^−5 M; for % Protein bound, 1st / % Protein bound, 2nd / % Protein bound, Mean: human plasma; for recovery: human, plasma, protein binding assay
[9] = In vitro absorption, Caco-2 permeability; type: in vitro ADME; conditions: human, Caco-2, pH 6.5, Caco-2, pH 6.5/7.4, 1.0×10^−5 M
[10] = log D at physiological pH; type: physicochemical; conditions: pH 7.4
Excerpt: This differential in the physico-chemical properties could be one of the drivers in the observed increased plasma protein binding capability of 2Ci-Bu in comparison to R-DOI and the moderate changes in the Caco-2 A-B/B-A permeability profiles.

[11] = molecular target: 5-HTB (Rattus norvegicus, UniProt P28564); experiment: Radioligand binding, antagonist radioligand [125I]CYP
[12] = molecular target: 5-HT2A (h) (Homo sapiens, UniProt P28223); experiment: Radioligand binding, agonist radioligand [125I](±)DOI
[13] = molecular target: 5-HT2B (h) (Homo sapiens, UniProt P41595); experiment: as above
[14] = HEK293, read-out: EMAX (%) calcium mobilization
[15] = read-out: EMAX (%) beta arrestin recruitment
[16] = read-out: A-B Permeability, 1st
[17] = read-out: A-B Permeability, 2nd
[18] = read-out: A-B Permeability, Mean
[19] = read-out: B-A Permeability, 1st
[20] = read-out: B-A Permeability, 2nd
[21] = read-out: B-A Permeability, Mean

T2 sequence (P28223 whole entry, added parts left off): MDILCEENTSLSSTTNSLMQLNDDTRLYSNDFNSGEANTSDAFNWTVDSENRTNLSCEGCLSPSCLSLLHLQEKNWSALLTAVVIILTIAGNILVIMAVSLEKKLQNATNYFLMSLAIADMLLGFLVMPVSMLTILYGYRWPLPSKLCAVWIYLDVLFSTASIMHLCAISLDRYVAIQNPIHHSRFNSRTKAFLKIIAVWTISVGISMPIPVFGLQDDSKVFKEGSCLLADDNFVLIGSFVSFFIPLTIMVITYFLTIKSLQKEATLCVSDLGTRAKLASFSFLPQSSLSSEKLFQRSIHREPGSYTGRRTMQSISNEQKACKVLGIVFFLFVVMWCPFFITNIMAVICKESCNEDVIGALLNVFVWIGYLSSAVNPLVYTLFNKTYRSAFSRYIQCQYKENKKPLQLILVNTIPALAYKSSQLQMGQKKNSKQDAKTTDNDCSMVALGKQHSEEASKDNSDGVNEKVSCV
T2 sequence (P32121 whole entry partner): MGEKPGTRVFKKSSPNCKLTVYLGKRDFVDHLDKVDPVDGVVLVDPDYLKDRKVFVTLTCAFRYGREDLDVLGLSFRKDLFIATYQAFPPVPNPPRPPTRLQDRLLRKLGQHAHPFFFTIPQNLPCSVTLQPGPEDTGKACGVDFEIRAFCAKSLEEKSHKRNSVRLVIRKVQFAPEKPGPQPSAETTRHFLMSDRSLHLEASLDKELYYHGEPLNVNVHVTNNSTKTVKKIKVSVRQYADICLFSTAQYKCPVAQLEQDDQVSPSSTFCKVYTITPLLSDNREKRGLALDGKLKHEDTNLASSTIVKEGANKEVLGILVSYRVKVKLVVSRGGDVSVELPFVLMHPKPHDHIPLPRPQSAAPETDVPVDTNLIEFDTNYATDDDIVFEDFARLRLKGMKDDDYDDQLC
T1 sequence (P28223 whole entry): as the sequence (P28223 whole entry, added parts left off) above
Chain of 5-HT2B (h) (P41595 whole entry): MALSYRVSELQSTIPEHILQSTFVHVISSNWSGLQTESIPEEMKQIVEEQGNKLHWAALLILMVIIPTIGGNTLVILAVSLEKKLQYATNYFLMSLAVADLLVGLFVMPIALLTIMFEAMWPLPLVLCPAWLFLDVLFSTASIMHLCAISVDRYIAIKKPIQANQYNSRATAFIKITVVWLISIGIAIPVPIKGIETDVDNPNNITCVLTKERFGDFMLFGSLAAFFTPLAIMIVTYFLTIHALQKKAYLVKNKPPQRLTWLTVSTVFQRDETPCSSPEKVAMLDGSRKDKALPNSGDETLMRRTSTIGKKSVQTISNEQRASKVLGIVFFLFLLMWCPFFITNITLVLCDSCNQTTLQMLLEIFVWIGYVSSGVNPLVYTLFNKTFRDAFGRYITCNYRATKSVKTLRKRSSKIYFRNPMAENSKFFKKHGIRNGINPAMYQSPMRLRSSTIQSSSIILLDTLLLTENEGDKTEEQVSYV
Chain of 5-HTB (P28564 whole entry): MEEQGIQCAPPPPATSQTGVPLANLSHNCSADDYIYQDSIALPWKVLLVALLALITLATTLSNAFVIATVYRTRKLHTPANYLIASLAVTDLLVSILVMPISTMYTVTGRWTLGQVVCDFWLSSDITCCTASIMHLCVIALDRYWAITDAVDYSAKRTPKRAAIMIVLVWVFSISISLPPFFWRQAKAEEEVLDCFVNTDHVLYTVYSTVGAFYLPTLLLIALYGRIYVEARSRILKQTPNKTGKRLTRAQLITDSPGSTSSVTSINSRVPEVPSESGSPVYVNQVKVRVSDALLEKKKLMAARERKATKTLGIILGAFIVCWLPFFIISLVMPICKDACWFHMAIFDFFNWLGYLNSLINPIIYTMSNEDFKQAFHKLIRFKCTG
T6 sequence (P34969 whole entry): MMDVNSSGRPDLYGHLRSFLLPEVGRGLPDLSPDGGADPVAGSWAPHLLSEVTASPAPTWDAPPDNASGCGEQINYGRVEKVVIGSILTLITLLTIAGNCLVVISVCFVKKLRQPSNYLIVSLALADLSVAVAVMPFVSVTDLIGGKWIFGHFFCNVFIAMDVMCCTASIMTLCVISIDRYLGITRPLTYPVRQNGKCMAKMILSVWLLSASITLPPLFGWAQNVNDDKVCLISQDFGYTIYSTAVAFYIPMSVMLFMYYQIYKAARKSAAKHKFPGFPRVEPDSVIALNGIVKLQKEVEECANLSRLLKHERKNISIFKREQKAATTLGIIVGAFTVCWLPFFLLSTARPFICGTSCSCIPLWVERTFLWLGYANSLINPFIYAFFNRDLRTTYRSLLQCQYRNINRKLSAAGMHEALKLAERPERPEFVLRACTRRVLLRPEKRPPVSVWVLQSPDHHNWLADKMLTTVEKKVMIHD
T5 sequence (P50406 whole entry): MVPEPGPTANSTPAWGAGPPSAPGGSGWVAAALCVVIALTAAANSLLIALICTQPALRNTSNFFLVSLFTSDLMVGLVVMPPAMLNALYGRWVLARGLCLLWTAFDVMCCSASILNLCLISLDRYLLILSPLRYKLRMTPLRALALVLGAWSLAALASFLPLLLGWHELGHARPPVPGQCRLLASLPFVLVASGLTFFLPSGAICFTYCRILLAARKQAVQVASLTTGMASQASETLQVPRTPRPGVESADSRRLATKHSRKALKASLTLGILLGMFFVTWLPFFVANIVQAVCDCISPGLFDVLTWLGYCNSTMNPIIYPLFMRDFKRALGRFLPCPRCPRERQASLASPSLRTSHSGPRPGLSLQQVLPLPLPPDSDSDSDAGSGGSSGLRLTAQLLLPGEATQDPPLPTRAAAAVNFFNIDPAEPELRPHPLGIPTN
T4 sequence (P28565 whole entry): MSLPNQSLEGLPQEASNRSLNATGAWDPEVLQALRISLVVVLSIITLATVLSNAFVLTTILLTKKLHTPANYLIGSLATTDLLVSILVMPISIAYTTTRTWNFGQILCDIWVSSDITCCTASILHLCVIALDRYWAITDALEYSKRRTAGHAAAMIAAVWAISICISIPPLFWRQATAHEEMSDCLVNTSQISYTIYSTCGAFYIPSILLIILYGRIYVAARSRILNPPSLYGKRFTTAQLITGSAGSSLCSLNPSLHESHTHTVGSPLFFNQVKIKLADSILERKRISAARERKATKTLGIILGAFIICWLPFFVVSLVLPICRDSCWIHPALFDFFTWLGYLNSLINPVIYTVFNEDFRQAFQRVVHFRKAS
Chain of 5-HT2A (h) (P28223 whole entry): as the sequence (P28223 whole entry, added parts left off) above

SMILES	Emax [1, 14] [%]	Emax [2, 15] [%]	% Protein bound, 1st [8] [%]	% Protein bound, 2nd [8] [%]	% Protein bound, Mean [8] [%]	recovery ([8]; read-out: % Recovery, 1st) [%]	recovery ([8]; read-out: % Recovery, 2nd) [%]	recovery ([8]; read-out: % Recovery, Mean) [%]	recovery ([9]; read-out: % Recovery A-B, 1st) [%]	recovery ([9]; read-out: % Recovery A-B, 2nd) [%]	recovery ([9]; read-out: % Recovery A-B, Mean) [%]	recovery ([9]; read-out: % Recovery B-A, 1st) [%]	recovery ([9]; read-out: % Recovery B-A, 2nd) [%]	recovery ([9]; read-out: % Recovery B-A, Mean) [%]	Papp A→B [9, 16] [×10⁻⁶ cm/s]	Papp A→B [9, 17] [×10⁻⁶ cm/s]	Papp A→B [9, 18] [×10⁻⁶ cm/s]	Papp B→A [9, 19] [×10⁻⁶ cm/s]	Papp B→A [9, 20] [×10⁻⁶ cm/s]	Papp B→A [9, 21] [×10⁻⁶ cm/s]	other results
COc1cc(CC(C)C)c(OC)cc1CCN [2C-iBu, 2,5-dimethoxy-4-isobutylphenethylamine]	88	57.4	73.7	74.5	74	107	105	106	45	48	46	70	72	71	10.9	10.6	10.7	7.87	7.92	7.9	EC50 [1]: 2.19 nM; Emax ([1]; HEK293, read-out: EMAX Ca^2+): 103%; EC50 [2]: 13.5 nM; Emax ([2]; Table 3, read-out: EMAX β-arrestin-2): 77%; ED50 ([3]; Rattus norvegicus, nebulization nose-only administration, rats (FIG. 4), read-out: ED50, inhibition of ΔPenh (AUC)): 2.7 µg/kg; Prevention of AHR (ΔPenh/PenH) in response to OVA ([3]; dose not printed (FIG. 2G)): did not result in a decrease in efficacy compared to (R)-DOI; Ki [4]: 79.4 nM; Ki [5]: 63.1 nM; Ki [6]: 1260 nM; Ki [7]: 316 nM; logD [10]: 1.64; Ki [11]: 50.1 nM; Ki [12]: 1.26 nM; Ki [13]: 15.8 nM
COc1cc(C[C@@H](C)N)c(OC)cc1I [R-DOI]	112	71.8	47.5	49.6	49	126	126	126	72	72	72	87	88	87	23.7	23.2	23.4	19.1	19.3	19.2	Prevention of AHR (ΔPenh/PenH) in response to OVA ([3]; 1.0 mg/kg, nebulized inhaled drug): full efficacy at preventing AHR; logD [10]: 1.04; Ki [11]: 2510 nM; Ki [13]: 2.51 nM

Reference: patent US12398093B2, “Compounds and methods for treating inflammatory disorders” (Board of Supervisors of Louisiana State University and …, priority 2019, dated 2025)
